Results as given in BigSolDB 2.1.

CC1(C)COP(=O)(Oc2cccc(OP3(=O)OCC(C)(C)CO3)c2)OC1
solubility (mole fraction)
Details	293.15 K	298.15 K	303.15 K	308.15 K	313.15 K	318.15 K	323.15 K	328.15 K	333.15 K
in 1,2-dichloroethane	0.017	0.0199	0.0233	0.0273	0.0317	0.0366	0.0423	0.0491	0.0564
in acetone	0.00607	0.00796	0.0103	0.0131	0.0163	0.0201	0.0251	–	–
in acetonitrile	0.0102	0.0127	0.0153	0.0191	0.0231	0.0279	0.0342	0.0405	0.0491
in chloroform	0.0646	0.07	0.0751	0.0807	0.086	0.0923	0.0984	–	–
in ethanol	0.00179	0.0024	0.00313	0.00413	0.00541	0.00702	0.00902	0.0118	0.0151
in ethyl acetate	0.0008	0.00099	0.00123	0.00154	0.00189	0.00233	0.00284	0.00348	0.0042
in ethyl formate	0.00422	0.00508	0.00607	0.00713	0.00842	0.00988	0.0116	–	–
in methanol	0.0022	0.00357	0.00543	0.0085	0.0129	0.0187	0.0284	–	–
in methyl acetate	0.00229	0.00281	0.00347	0.00422	0.00511	0.0062	0.00745	–	–
in n-hexane	1e-05	2e-05	2e-05	4e-05	6e-05	8e-05	0.00012	–	–
in n-propanol	0.00096	0.00135	0.00187	0.0026	0.00356	0.00495	0.00658	0.00899	0.0118
in toluene	0.00016	0.0002	0.00026	0.00032	0.0004	0.00049	0.00061	0.00076	0.0009
